Results on five compounds are retold here after patent EP4203925B1, “CANNABINOID COMBINATIONS AND THEIR USE IN THE TREATMENT OF CANCER” (priority 2020, dated 2022).

Values joined by “and” are separate entries in the source; they are usually repeats but may differ in a detail not shown here. Equal entries are not always repeated. “Also recorded” adds a separate entry of the source. Where two headings read alike, the source gives them in different places.

One data set concerns MCF-7 cells. Kind of data set: MTT cell viability assay with Chou-Talalay median-effect / combination index analysis. The following applies: for IC50 / IC75 / IC90: Homo sapiens; for IC75: read-out: Dm (µM) IC75; for IC90: read-out: Dm (µM) IC90.
A further data set concerns MDA-MB-231 cells. Described as above. The following applies: for IC50 / IC75 / IC90: Homo sapiens, MDA-MB-231, 48 h; for IC50: read-out: Dm (µM) IC50; for IC75: read-out: Dm (µM) IC75; for IC90: read-out: Dm (µM) IC90.
The test system of the next data set is breast cancer cell lines. Kind of data set: MTT cell viability / checkerboard assay, cell line not given. The note with it: Homo sapiens, read-out: IC50 values.
For a further data set, the system named is white blood cells. Description: Toxicity screening in white blood cells (MTT). The format is cell-based, human. The following applies: B6 (42 µM), C6 (43 µM), 24 hours. As to the method: MTT solution (5mg/ml, 20 µl) was added to existing media in the wells and the cells were incubated for 3 hours at 37 °C. After the 3 hours, the plate was centrifuged at 1000 x g for 10 minutes, the spent media removed and the formazan crystals solubilised in 100 µl DMSO. The plate was then shaken for 1 minute and the absorbance read at 550nm.
Blood samples were obtained from healthy volunteers (n=3, 16 ml/person) in ethylenediaminetetraacetic acid (EDTA) vacutainers. The samples were centrifuged at 500 x g for 10 minutes, the plasma (top layer) removed and the buffy coat collected. The buffy coat was then centrifuged at 2000 x g for 10 minutes to remove residual plasma while retaining the buffy coat. Lysis buffer (0.16M NH4Cl, 0.01 M KHCO3, 6 mM EDTA; pH 7.3) was added to the buffy coat in a 9:1 ratio (lysis buffer:buffy coat) and the mixture vortexed for 10 seconds, followed by a 10 minute incubation at room temperature. The sample was then centrifuged at 2000 x g for 10 minutes and the pellet retained (containing white blood cells). […] White blood cells were stained with trypan blue and counted using a haemocytometer. […]
The potential toxicity induced by the selected treatments (B6 and C6) were evaluated in two ways: 1) screening in the normal breast cells, MCF-10A and 2) determining the cytotoxicity to white blood cells isolated from human volunteers (Figure 14).

The mark [1] stands for this setting: MCF7, 48 h, read-out: Dm (µM) IC50.
The mark [2] stands for this setting: MCF7, read-out: Required concentration of cannabinoids: Individual.

In the case of `CCCCCc1cc(O)c(C/C=C(\C)CCC=C(C)C)c(O)c1` [CBG, cannabigerol], the IC50 came out at 26.9 µM in the data set with MCF-7 cells (setting [1]), 26.9 µM in the data set on MCF-7 cells (setting [2]), 24.9 µM with MDA-MB-231 cells and 30 µM in the data set on breast cancer cell lines. The IC75 with MCF-7 cells (MCF7, 48 h) was 33 µM; with MDA-MB-231 cells, 28.1 µM. Further, the IC90 came to 40.5 µM in the data set on MCF-7 cells (MCF7, 48 h) and 31.8 µM in the data set with MDA-MB-231 cells.
`CCCCCc1cc(O)c2c(c1)OC(C)(C)[C@@H]1CCC(C)=C[C@@H]21` [THC, Δ^9-tetrahydrocannabinol]: the results for the “Dm (µM) IC75” value in the data set on MCF-7 cells and with MDA-MB-231 cells were 43.11 µM and 38.33 µM, respectively. For the same compound, in the data set on MCF-7 cells, the “Required concentration of cannabinoids: Individual” value was 39.23 µM (2×) and 47.24 µM (2×). For the same compound, the IC50 stood at 32.2 µM in the data set with MCF-7 cells (setting [1]), 32.6 µM with MCF-7 cells (setting [2]), 30 µM with MDA-MB-231 cells and 32 µM with breast cancer cell lines. The IC90 in the data set on MCF-7 cells (MCF7, 48 h) was 57.7 µM; in the data set with MDA-MB-231 cells, 49 µM.
Turning to `C=C(C)[C@@H]1CCC(C)=C[C@H]1c1c(O)cc(CCCCC)cc1O` [CBD, cannabidiol], the IC50 is 20.6 µM in the data set with MCF-7 cells (setting [1]), 20.6 µM in the data set on MCF-7 cells (setting [2]), 14.7 µM with MDA-MB-231 cells and 19 µM in the data set with breast cancer cell lines. Further, the IC75 with MCF-7 cells (MCF7, 48 h) stood at 30.2 µM; with MDA-MB-231 cells, 26.4 µM. For the same compound, the IC90 in the data set on MCF-7 cells (MCF7, 48 h) worked out at 44.4 µM; in the data set on MDA-MB-231 cells, 47.4 µM.
For `CC[C@@]1(O)C(=O)OCc2c1cc1n(c2=O)Cc2cc3ccccc3nc2-1` [camptothecin], the “growth inhibition / cytotoxicity” value with white blood cells is “lack of growth inhibition; also recorded: limited cytotoxicity”.
Regarding `CCCCCc1cc(O)c2c(c1)OC(C)(C)c1ccc(C)cc1-2` [CBN, cannabinol], the IC50 with MCF-7 cells (setting [1]) was determined as 23.4 µM; with MCF-7 cells (setting [2]), 23.4 µM; with MDA-MB-231 cells, 22.5 µM; in the data set on breast cancer cell lines, 25 µM. Besides, the IC75 in the data set on MCF-7 cells (MCF7, 48 h) stood at 26.6 µM; in the data set on MDA-MB-231 cells it was 25.7 µM. Moreover, the IC90 in the data set with MCF-7 cells (MCF7, 48 h) came out at 30.2 µM; with MDA-MB-231 cells it was 29.3 µM.
